System: HBV
Experiment: HBV-DNA Antiviral Assay Using HepG2.117 Cells (intracellular HBV DNA by qPCR)
Assay type: cell-based, hepatitis B virus (genotype D)
Conditions: Hepatitis B virus, HepG2.117
Method in brief: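 Endpoint: qPCR copy number of intracellular HBV DNA after 3-day compound exposure, with inhibition set relative to the 2% DMSO control. The cells were doxycycline-free HepG2.117 carrying a Tet-off genotype D genome, dosed at nine 4-fold dilutions. A duplicate plate gave ATP-based viability (CC50).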

Row | Compound | EC50 [nM]
1 | CC1Cn2c(c(C(=O)NCc3ccccc3-c3ncccn3)n(-c3ccc(OC4CC4)cc3)c2=O)CN1C(=O)c1ccc(Br)c(C#N)c1 (racemic) [Example 451, rac-(6R)-7-(4-bromo-3-cyano-benzoyl)-2-[4-(cyclopropoxy)phenyl]-6-methyl-3-oxo-N-[(2-pyrimidin-2-ylphenyl)methyl]-6,8-dihydro-5H-imidazo[1,5-a]pyrazine-1-carboxamide] | 100 to 500
2 | C[C@H]1Cn2c(c(C(=O)NCc3ccccc3-c3ncccn3)n(-c3ccc(OC4CC4)cc3)c2=O)CN1C(=O)c1ccc(Br)c(C#N)c1 (racemic) [Example 452, rac-(6S)-7-(4-bromo-3-cyano-benzoyl)-2-[4-(cyclopropoxy)phenyl]-6-methyl-3-oxo-N-[(2-pyrimidin-2-ylphenyl)methyl]-6,8-dihydro-5H-imidazo[1,5-a]pyrazine-1-carboxamide] | < 100
3 | C[C@@H](NC(=O)c1c2n(c(=O)n1-c1ccccc1)CCN(C(=O)c1ccc(Br)c(Cl)c1)C2)c1ccccc1 (stereo in doubt) [Example 37, 7-(4-bromo-3-chloro-benzoyl)-3-oxo-2-phenyl-N-[rac-(1R)-1-phenylethyl]-6,8-dihydro-5H-imidazo[1,5-a]pyrazine-1-carboxamide] | 500 to 5000
4 | C[C@H](NC(=O)c1c2n(c(=O)n1-c1ccccc1)CCN(C(=O)c1ccc(Br)c(Cl)c1)C2)c1ccccc1 (stereo in doubt) [Example 38, 7-(4-bromo-3-chloro-benzoyl)-3-oxo-2-phenyl-N-[rac-(1S)-1-phenylethyl]-6,8-dihydro-5H-imidazo[1,5-a]pyrazine-1-carboxamide] | 500 to 5000
5 | COc1ccc(-n2c(C(=O)N[C@H](C)c3ccccc3)c3n(c2=O)CCN(C(=O)c2ccc(Cl)c(Cl)c2)C3)cc1 (stereo in doubt) [Example 68, 7-(3,4-dichlorobenzoyl)-2-(4-methoxyphenyl)-3-oxo-N-[rac-(1R)-1-phenylethyl]-6,8-dihydro-5H-imidazo[1,5-a]pyrazine-1-carboxamide] | 500 to 5000
6 | COc1ccc(-n2c(C(=O)N[C@@H](C)c3ccccc3)c3n(c2=O)CCN(C(=O)c2ccc(Br)c(Cl)c2)C3)cc1 (stereo in doubt) [Example 69, 7-(4-bromo-3-chloro-benzoyl)-2-(4-methoxypehnyl)-3-oxo-N-[rac-(1S)-1-phenylethyl]-6,8-dihydro-5H-imidazo[1,5-a]pyrazine-1-carboxamide] | 100 to 500
7 | COc1ccc(-n2c(C(=O)N[C@@H](C)c3ccccc3)c3n(c2=O)CCN(C(=O)c2ccc(Cl)c(Cl)c2)C3)cc1 (stereo in doubt) [Example 70, 7-(3,4-dichlorobenzoyl)-2-(4-methoxyphenyl)-3-oxo-N-[rac-(1S)-1-phenylethyl]-6,8-dihydro-5H-imidazo[1,5-a]pyrazine-1-carboxamide] | 500 to 5000
8 | COc1ccc([C@@H](C)NC(=O)c2c3n(c(=O)n2-c2ccc(OC)cc2)CCN(C(=O)c2ccc(Br)c(Cl)c2)C3)cc1 (stereo in doubt) [Example 72, 7-(4-bromo-3-chloro-benzoyl)-2-(4-methoxyphenyl)-3-oxo-N-[rac-(1R)-1-(4-methoxyphenyl)ethyl]-6,8-dihydro-5H-imidazo[1,5-a]pyrazine-1-carboxamide] | 500 to 5000
9 | COc1ccc([C@H](C)NC(=O)c2c3n(c(=O)n2-c2ccc(OC)cc2)CCN(C(=O)c2ccc(Br)c(Cl)c2)C3)cc1 (stereo in doubt) [Example 73, 7-(4-bromo-3-chloro-benzoyl)-2-(4-methoxyphenyl)-3-oxo-N-[rac-(1S)-1-(4-methoxyphenyl)ethyl]-6,8-dihydro-5H-imidazo[1,5-a]pyrazine-1-carboxamide] | < 100
10 | COc1ccc(-n2c(C(=O)N[C@H](C)c3ccccc3)c3n(c2=O)CCN(C(=O)c2ccc(Br)c(Cl)c2)C3)cc1 (stereo in doubt) [Example 82, 7-(4-bromo-3-chloro-benzoyl)-2-(4-methoxyphenyl)-3-oxo-N-[rac-(1R)-1-phenylethyl]-6,8-dihydro-5H-imidazo[1,5-a]pyrazine-1-carboxamide] | 100 to 500
11 | C[C@@H]1CN(Cc2ccccc2)C(=O)c2c3n(c(=O)n2C1)CCN(C(=O)c1ccc(Br)c(Cl)c1)C3 (stereo in doubt) [Example 97, rac-(11R)-13-benzyl-4-(4-bromo-3-chloro-benzoyl)-11-methyl-4,7,9,13-tetrazatricyclo[7.5.0.0^2,7]tetradec-1-ene-8.14-dione] | 500 to 5000
12 | C[C@H]1CN(Cc2ccccc2)C(=O)c2c3n(c(=O)n2C1)CCN(C(=O)c1ccc(Br)c(Cl)c1)C3 (stereo in doubt) [Example 98, rac-((1S)-13-benzyl-4-(4-bromo-3-chloro-benzoyl)-11-methyl-4,7,9,13-tetrazatricyclo[7.5.0.0^2,7]tetradec-1-ene-8.14-dione] | 500 to 5000
13 | COc1ccc(-n2c(C(=O)N[C@@H]3CCc4cc(OC)ccc43)c3n(c2=O)CCN(C(=O)c2ccc(Br)c(Cl)c2)C3)cc1 (stereo in doubt) [Example 99, 7-(4-bromo-3-chloro-benozyl)-2-(4-methoxyphenyl)-3-oxo-N-[rac-(1R)-5-methoxyindazin-1-yl]-6,8-dihydro-5H-imidazo[1,5-a]pyrazine-1-carboxamide] | 500 to 5000
14 | COc1ccc(-n2c(C(=O)N[C@H]3CCc4cc(OC)ccc43)c3n(c2=O)CCN(C(=O)c2ccc(Br)c(Cl)c2)C3)cc1 (stereo in doubt) [Example 100, 7-(4-bromo-3-chloro-benzoyl)-2-(4-methoxyphenyl)-3-oxo-N-[rac-(1S)-5-methoxyindazin-1-yl]-6,8-dihydro-5H-imidazo[1,5-a]pyrazine-1-carboxamide] | 100 to 500
15 | C[C@H](NC(=O)c1c2n(c(=O)n1C)CCN(C(=O)c1ccc(Br)c(Cl)c1)C2)c1ccccc1 (stereo in doubt) [Example 112, 7-(4-bromo-3-chloro-benzoyl)-2-methyl-3-oxo-N-[rac-(1S)-1-phenylethyl]-6,8-dihydro-5H-imidazo[1,5-a]pyrazine-1-carboxamide] | > 5000
16 | C[C@@H](NC(=O)c1c2n(c(=O)n1C)CCN(C(=O)c1ccc(Br)c(Cl)c1)C2)c1ccccc1 (stereo in doubt) [Example 113, 7-(4-bromo-3-chloro-benzoyl)-2-methyl-3-oxo-N-[rac-(1R)-1-phenylethyl]-6,8-dihydro-5H-imidazo[1,5-a]pyrazine-1-carboxamide] | 500 to 5000
17 | C[C@H](NC(=O)c1c2n(c(=O)n1-c1ccc(OCC(F)(F)F)cc1)CCN(C(=O)c1ccc(Br)c(Cl)c1)C2)c1ccccc1 (stereo in doubt) [Example 127, 7-(4-bromo-3-chloro-benzoyl)-3-oxo-N-[rac-(1S)-1-phenylethyl]-2-[4-(2,2,2-trifluoroethoxy)phenyl]-6,8-dihydro-5H-imidazo[1,5-a]pyrazine-1-carboxamide] | 500 to 5000
18 | C[C@@H](NC(=O)c1c2n(c(=O)n1-c1ccc(OCC(F)(F)F)cc1)CCN(C(=O)c1ccc(Br)c(Cl)c1)C2)c1ccccc1 (stereo in doubt) [Example 128, 7-(4-bromo-3-chloro-benzoyl)-3-oxo-N-[rac-(1R)-1-phenylethyl]-2-[4-(2,2,2-trifluoroethoxy)phenyl]-6,8-dihydro-5H-imidazo[1,5-a]pyrazine-1-carboxamide] | 100 to 500
19 | CC(C)Oc1ccc(-n2c(C(=O)N[C@@H](C)c3ccccc3)c3n(c2=O)CCN(C(=O)c2ccc(Cl)c(Cl)c2)C3)cc1 (stereo in doubt) [Example 129, 7-(3,4-dichlorobenzoyl)-2-(4-isopropoxyphenyl)-3-oxo-N-[rac-(1S)-1-phenylethyl]-6,8-dihydro-5H-imidazo[1,5-a]pyrazine-1-carboxamide] | 500 to 5000
20 | CC(C)Oc1ccc(-n2c(C(=O)N[C@H](C)c3ccccc3)c3n(c2=O)CCN(C(=O)c2ccc(Cl)c(Cl)c2)C3)cc1 (stereo in doubt) [Example 130, 7-(3,4-dichlorobenzoyl)-2-(4-isopropoxyphenyl)-3-oxo-N-[rac-(1R)-1-phenylethyl]-6,8-dihydro-5H-imidazo[1,5-a]pyrazine-1-carboxamide] | 100 to 500
21 | C[C@H](NC(=O)c1c2n(c(=O)n1-c1ccc(OC3CCC3)cc1)CCN(C(=O)c1ccc(Br)c(Cl)c1)C2)c1ccccc1 (stereo in doubt) [Example 136, 7-(4-bromo-3-chloro-benzoyl)-2-[4-(cyclobutoxy)phenyl]-3-oxo-N-[rac-(1S)-1-phenylethyl]-6,8-dihydro-5H-imidazo[1,5-a]pyrazine-1-carboxamide] | 100 to 500
22 | C[C@@H](NC(=O)c1c2n(c(=O)n1-c1ccc(OC3CCC3)cc1)CCN(C(=O)c1ccc(Br)c(Cl)c1)C2)c1ccccc1 (stereo in doubt) [Example 137, 7-(4-bromo-3-chloro-benzoyl)-2-[4-(cyclobutoxy)phenyl]-3-oxo-N-[rac-(1R)-1-phenylethyl]-6,8-dihydro-5H-imidazo[1,5-a]pyrazine-1-carboxamide] | 100 to 500
23 | O=C(c1ccc(Br)c(Cl)c1)N1CCn2c(c3n(c2=O)C[C@H](CO)CN(Cc2ccccc2)C3=O)C1 (stereo in doubt) [Example 146, rac-(11R)-13-benzyl-4-(4-bromo-3-chloro-benzoyl)-11-(hydroxymethyl)-4,7,9,13-tetrazatricyclo[7.5.0.0^2,7]tetradec-1-ene-8,14-dione] | 100 to 500
24 | O=C(c1ccc(Br)c(Cl)c1)N1CCn2c(c3n(c2=O)C[C@@H](CO)CN(Cc2ccccc2)C3=O)C1 (stereo in doubt) [Example 147, rac-(11S)-13-benzyl-4-(4-bromo-3-chloro-benzoyl)-11-(hydroxymethyl)-4,7,9,13-tetrazatricyclo[7.5.0.0^2,7]tetradec-1-ene-8,14-dione] | 100 to 500
25 | CC[C@@H](NC(=O)c1c2n(c(=O)n1-c1ccc(OC)cc1)CCN(C(=O)c1ccc(Br)c(Cl)c1)C2)c1ccccc1 (stereo in doubt) [Example 150, 7-(4-bromo-3-chloro-benzoyl)-2-(4-methoxyphenyl)-3-oxo-N-[rac-(1R)-1-phenylpropyl]-6,8-dihydro-5H-imidazo[1,5-a]pyrazine-1-carboxamide] | 100 to 500
